The assay concerns the target T1, DAPK1 (Homo sapiens, UniProt P53355).
T1 construct: purchased Thermo Fisher Scientific (Life Technologies) SelectScreen
Kind of assay: SelectScreen Adapta. Format: biochemical. Put shortly: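 SelectScreen broad panel; activity (Z'LYTE, Adapta) plus binding formats. ATP: Km app for CSF1R Z'LYTE; 10 for CAMK1 Adapta. Readout = % per kinase.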

The structures appear in SMILES notation.

One may read the inhibition as the share of the control response that was lost under treatment.

T1 sequence (P53355 whole entry): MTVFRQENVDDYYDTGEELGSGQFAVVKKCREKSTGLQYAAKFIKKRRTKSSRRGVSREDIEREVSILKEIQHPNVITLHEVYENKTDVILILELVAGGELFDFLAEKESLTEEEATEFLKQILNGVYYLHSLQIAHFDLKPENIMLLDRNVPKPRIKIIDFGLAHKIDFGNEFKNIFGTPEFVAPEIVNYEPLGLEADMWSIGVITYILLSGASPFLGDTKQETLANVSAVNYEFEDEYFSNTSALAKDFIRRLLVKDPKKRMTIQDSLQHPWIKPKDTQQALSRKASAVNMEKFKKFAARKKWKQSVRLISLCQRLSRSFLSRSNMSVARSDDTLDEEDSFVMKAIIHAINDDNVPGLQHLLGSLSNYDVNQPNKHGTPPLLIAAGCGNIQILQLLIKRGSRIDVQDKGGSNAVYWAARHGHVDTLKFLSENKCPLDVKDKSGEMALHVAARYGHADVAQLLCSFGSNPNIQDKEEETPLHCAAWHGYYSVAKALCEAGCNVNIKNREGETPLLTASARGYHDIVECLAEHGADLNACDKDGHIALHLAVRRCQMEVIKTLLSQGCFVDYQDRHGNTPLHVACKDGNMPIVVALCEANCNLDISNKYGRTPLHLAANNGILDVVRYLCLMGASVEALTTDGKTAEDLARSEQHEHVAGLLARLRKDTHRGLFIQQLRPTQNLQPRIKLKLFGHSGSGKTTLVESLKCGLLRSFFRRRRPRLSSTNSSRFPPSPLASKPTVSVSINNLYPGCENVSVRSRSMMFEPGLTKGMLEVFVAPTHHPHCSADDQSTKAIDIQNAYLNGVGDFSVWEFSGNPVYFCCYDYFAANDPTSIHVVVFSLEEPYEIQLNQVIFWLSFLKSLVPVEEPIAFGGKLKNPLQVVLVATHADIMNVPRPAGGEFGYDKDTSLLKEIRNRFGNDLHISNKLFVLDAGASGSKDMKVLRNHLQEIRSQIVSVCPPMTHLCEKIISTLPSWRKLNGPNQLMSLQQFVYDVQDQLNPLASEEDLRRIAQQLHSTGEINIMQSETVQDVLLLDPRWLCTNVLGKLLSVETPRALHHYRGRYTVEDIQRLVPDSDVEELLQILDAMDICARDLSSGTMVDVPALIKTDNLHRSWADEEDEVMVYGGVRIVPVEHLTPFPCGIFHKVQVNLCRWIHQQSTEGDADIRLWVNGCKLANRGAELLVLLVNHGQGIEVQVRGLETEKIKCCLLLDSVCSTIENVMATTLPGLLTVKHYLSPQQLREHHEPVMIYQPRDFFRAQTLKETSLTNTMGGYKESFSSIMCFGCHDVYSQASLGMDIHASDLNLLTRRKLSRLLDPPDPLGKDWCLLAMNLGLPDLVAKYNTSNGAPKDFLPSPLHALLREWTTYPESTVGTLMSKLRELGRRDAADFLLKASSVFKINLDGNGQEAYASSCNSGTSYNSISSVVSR

As for `CN(C(=O)CN1CCOCC1)c1ccc2sc3c(-c4cccc5c(=O)cc(N6CC7CCC(C6)O7)oc45)cccc3c2c1` [NU5455], the inhibition at 1 µM was 1.6%.

The values above are taken from paper PMC6934184, “Selective DNA-PKcs inhibition extends the therapeutic index of localized radiotherapy and chemotherapy” (The Journal of Clinical Investigation, 2019).
